Experiments:
Type in all cases: cell-based, human
[1] = tested on: EGFP-NFATc1 transfected U2OS cells; experiment: EGFP-NFATc1 translocation assay, Nuclear Trafficking Analysis module; details: 60 minutes incubation; FIG. 11 / FIG. 14
Text: The present patent specification describes a method for monitoring the NFATC1 signalling pathway with a cell-secreted, cell-associated analyte. The assay method is based on the intracellular translocation of an EGFP-NFATc1 fusion protein in stably transfected mammalian cells. NFATc1 is a transcription factor involved in T-cell signalling and tissue development. […] Following activation with agonists these translocate to the nucleus.
The NFAT assay is optimised for image acquisition and analysis on the IN Cell Analysis System (GE Healthcare) using the Nuclear Trafficking-Analysis Module, although the assay can be imaged on other systems. The Nuclear Trafficking-Analysis Module measures the degree of EGFP-NFAT translocation from the cytoplasm to the nucleus on the addition of agonists.
• 1. Incubate the microplate at 37° C., 5% CO2 and 95% humidity. • 2. The day before commencing the assay, seed at 1×10^4 cells per well in 200 μl of growth medium. Incubate for 24 hours at 37° C. If one of the wells on the cell plate is used for flat field correction, it should not contain cells. • 3. […]
• 1. […] Cells were contacted with test agent for a further 3-18 hours and cell associated TNF, IL-8 or PDGF was measured post stimulation with test agent. • 8. […] The results were analysed using an object intensity algorithm (IN Cell Investigator software). […]

U2OS cells [2] = experiment: Cell-associated IL-6 immunocytochemistry (Cy5 second antibody) combined with intracellular calcium, IN Cell Analyzer 1000; details: 4 hours contact; Example 4, FIG. 8
Procedure: 4. Combination Assay of Intracellular Calcium and Human Interleukin-6 from Calcium Ionophore A23187-Stimulated U2OS Cells on IN Cell Analyzer 1000 4.1 Materials Anti-IL-6 (R&D Systems) Goat anti-human IgG CY™ 5 linked (GE Healthcare) Calcium ionophore A23187 (Sigma) U2OS cells (European Collection of Cell Cultures, Porton Down, UK) 4.2 Method and Results i) U2OS cells were seeded into 96-well tissue culture plates at 6000 cell/well in 100 μl of complete McKoys media and incubated overnight at 37° C., 5% CO2. ii) Cells were stimulated with A23187 for 8 minutes before measurement of a calcium transient on an IN Cell Analyzer 1000 as described in Example 1. […] The results from this assay were measured on an IN Cell Analyzer 1000 using a 10× objective, 505 light pass dichroic 475/535 filter set 200 ms exposure. […] Cells were contacted with the test agent (calcium ionophore A23187) for 4 hours and cell-associated IL-6 measured post cell-stimulation with test agent. After stimulation with the ionophore, the supernatant was decanted and the cells were washed thoroughly X3 with PBS. […] The results were analysed using an object intensity algorithm (IN Cell Investigator software). […]

U2OS cells [3] = experiment: Calcium transient (Fluo-4 fluorescence) in stimulated U2OS cells, IN Cell Analyzer 1000; details: for cytosolic intracellular calcium (emitted fluorescence of Fluo-4): test agent 1.56-100 μM, over eight minutes, peak and decline, dose dependent, FIG. 1 / FIG. 4
Procedure: i) U2OS cells were seeded into 96-well Greiner cluster plates at 6000 cell/well in 100 μl of complete McKoys media and incubated overnight at 37° C., 5% CO2.
ii) Loading buffer was prepared with 42.8 ml of calcium flux buffer with 6.65 ml of 7.5% albumin This buffer was stored at 37° C.
iii) 120 ml of maintenance buffer was prepared with 118.16 ml calcium flux buffer and 1840 μl of 7.5% albumin

U2OS cells [4] = experiment: Cell-associated IL-6, chemiluminescent anti-IL-6-HRP assay on LEADSEEKER imaging system, same cells after the calcium transient; details: after stimulation (A23187 4 hours, histamine overnight); FIG. 3 / FIG. 5
Procedure: Cells were contacted with the test agent (calcium ionophore A23187) for 4 hours and cell-associated IL-6 measured post cell-stimulation with the test agent. After stimulation, the cell supernatant was decanted, the cells were washed thoroughly X3 with PBS, before incubating with the anti-IL-6 antibody. The cells were washed ×3 with PBS before addition of the chemiluminescent substrate. Results from the calcium transient were obtained prior to the IL-6 results using the same population of cells. The results (FIG. 3) were obtained using a […] ™ Multimodality Imaging System, exposing for 20 seconds, using the chemiluminescent substrate and the luminescent signal reporter (anti-IL-6 labelled with the enzyme horseradish peroxidise).
The results were obtained on the […] ™ Multimodality Imaging System, exposing for 20 seconds, using the chemiluminescent substrate and the luminescent signal reporter (anti-IL-6 labelled with the enzyme horseradish peroxidise).
iv) 5 mg of calcium ionophore A23187 was dissolved in 1 ml of DMSO. The ionophore was subsequently diluted in complete maintenance buffer to give final concentration of ionophore over the range of 1.56-100 μM. Fluo-4 dye was prepared by adding 456 μl DMSO to a 50 μg vial, and the vial was mixed well to provide a Fluo-4 stock concentration of 100 μM. […]

[5] = tested on: EGFP-NFAT1c transfected U2OS cells; experiment: Cell-associated PDGF immunofluorescence combined with EGFP-NFAT1c translocation; details: further 3-18 hours contact; FIG. 12
Procedure: • 1. The day before commencing the assay, seed EGFP-NFATc1 transfected U2OS cells at 1×10^4 cellsper well in 200 μl of growth medium. • 2. On the day of the assay, prepare the test agent (ionomycin, ionomycin+PMA, A23187). These samples are typically prepared in assay medium. • 3. Decant the growth medium from the cell plate, removing all excess liquid and add 200 μl. Using the cell culture medium, wash the cells. Decant the wash. • 4. Add […] assay medium containing test agent. Incubate for 60 minutes. • 5. The total volume is 200 μl. After the suitable incubation period, image the plate on the IN Cell Analyzer 1000 using appropriate filters and dichroic mirror. • 6. Carry out the data analysis using the Nuclear Trafficking Analysis module. • 7. Cells were contacted with test agent for a further 3-18 hours and cell associated TNF, IL-8 or PDGF was measured post stimulation with test agent. • 8. After stimulation with the test agent, the supernatant was decanted and the cells were washed ×3 with PBS. […] The results were analysed using an object intensity algorithm (IN Cell Investigator software). […]

| SMILES | EGFP-NFAT1c translocation [1] | cell-associated IL-6 with increasing concentration of the ionophore (U2OS cells [2]) | intracellular calcium compared with the unstimulated (zero ionophore) control (U2OS cells [3]; 1.56 μM ionophore, 8 minutes stimulation, FIG. 7) | intracellular calcium with increasing concentration of the ionophore (U2OS cells [3]; Example 4, FIG. 8) | cytosolic intracellular calcium (emitted fluorescence of Fluo-4) (U2OS cells [3]) | cell-associated IL-6 (U2OS cells [4]) | cell-associated PDGF release [5] |
| --- | --- | --- | --- | --- | --- | --- | --- |
| CNc1ccc2oc(C[C@H]3O[C@@]4(CC[C@H]3C)O[C@H]([C@H](C)C(=O)c3ccc[nH]3)[C@H](C)C[C@H]4C)nc2c1C(=O)O [calcium ionophore A23187, Calcium ionophore A23187] | EGFP-NFAT1c cell response | dose-dependent rise | increase in intracellular calcium | dose-dependent rise | increase in cytosolic intracellular calcium | increase in cell-associated IL-6 |  |
| NCCc1c[nH]cn1 [histamine, Histamine] |  |  |  |  | increase in cytosolic intracellular calcium | increase in cell-associated IL-6 |  |
| C[C@H](CCC(=O)O)C[C@H](C)C[C@H](C)C(=O)/C=C(\O)[C@H](C)C[C@H](C)C/C=C/[C@@H](C)[C@@H](O)[C@@H](C)[C@@H](O)C[C@@H]1CC[C@@](C)([C@H]2CC[C@@](C)([C@@H](C)O)O2)O1 [ionomycin, Ionomycin] | EGFP-NFAT1c cell response |  |  |  |  |  | PDGF release |

From patent US8673554B2, “Multiplex cell signalling assays” (Ge Healthcare UK Limited, priority 2008, dated 2014)
